Measured values: publication PMC6691133, “Targeting PFKFB3 alleviates cerebral ischemia-reperfusion injury in mice” (Scientific Reports, 2019)

Target: T1, 6-phosphofructo-2-kinase/fructose-2,6-bisphosphatase-3 (PFKFB3) (Homo sapiens, UniProt Q16875)
T1 construct: Recombinant full length human PFKFB3 protein purified from Sf9 baculoviral system
Assay: ADP-Glo kinase assay with recombinant PFKFB3 (ATP + F6P)
Format: biochemical

T1 sequence (Q16875 whole entry): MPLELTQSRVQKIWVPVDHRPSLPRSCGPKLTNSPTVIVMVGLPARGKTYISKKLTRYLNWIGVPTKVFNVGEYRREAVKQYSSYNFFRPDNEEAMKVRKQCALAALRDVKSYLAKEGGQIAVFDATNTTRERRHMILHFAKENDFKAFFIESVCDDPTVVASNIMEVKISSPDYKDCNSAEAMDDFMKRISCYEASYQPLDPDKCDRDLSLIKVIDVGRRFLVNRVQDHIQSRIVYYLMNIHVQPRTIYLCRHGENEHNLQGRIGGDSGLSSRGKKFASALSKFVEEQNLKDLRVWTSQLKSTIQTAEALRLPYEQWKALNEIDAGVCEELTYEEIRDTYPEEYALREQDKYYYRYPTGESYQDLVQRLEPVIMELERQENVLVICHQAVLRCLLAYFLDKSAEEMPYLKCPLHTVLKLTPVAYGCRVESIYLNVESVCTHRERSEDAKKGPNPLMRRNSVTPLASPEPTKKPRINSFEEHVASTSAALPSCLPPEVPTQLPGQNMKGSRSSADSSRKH

IC50: 0.018 µM
SMILES: Cc1noc(C)c1Cn1cc(C#N)c2cc(Oc3ccc(NC(=O)[C@@H]4CCCN4)cc3)ccc21 [AZ67]
